The values below come from ChEMBL document CHEMBL5465560, “Selectivity Literature for EUbOPEN Chemogenomic Library” (2024).

Experiment [1] addresses Calcium/calmodulin-dependent protein kinase type II subunit beta (Homo sapiens) (UniProt Q13554). Put plainly: Selectivity interaction (Kinase panel (DSF assay)) EUB0001558a CAMK2B. In general terms: DSF heats the sample and reads unfolding from a dye or from intrinsic fluorescence.
For experiment [2], the target named is T1, Kinase suppressor of Ras 1 (Homo sapiens) (UniProt Q8IVT5).
T1 sequence (whole entry): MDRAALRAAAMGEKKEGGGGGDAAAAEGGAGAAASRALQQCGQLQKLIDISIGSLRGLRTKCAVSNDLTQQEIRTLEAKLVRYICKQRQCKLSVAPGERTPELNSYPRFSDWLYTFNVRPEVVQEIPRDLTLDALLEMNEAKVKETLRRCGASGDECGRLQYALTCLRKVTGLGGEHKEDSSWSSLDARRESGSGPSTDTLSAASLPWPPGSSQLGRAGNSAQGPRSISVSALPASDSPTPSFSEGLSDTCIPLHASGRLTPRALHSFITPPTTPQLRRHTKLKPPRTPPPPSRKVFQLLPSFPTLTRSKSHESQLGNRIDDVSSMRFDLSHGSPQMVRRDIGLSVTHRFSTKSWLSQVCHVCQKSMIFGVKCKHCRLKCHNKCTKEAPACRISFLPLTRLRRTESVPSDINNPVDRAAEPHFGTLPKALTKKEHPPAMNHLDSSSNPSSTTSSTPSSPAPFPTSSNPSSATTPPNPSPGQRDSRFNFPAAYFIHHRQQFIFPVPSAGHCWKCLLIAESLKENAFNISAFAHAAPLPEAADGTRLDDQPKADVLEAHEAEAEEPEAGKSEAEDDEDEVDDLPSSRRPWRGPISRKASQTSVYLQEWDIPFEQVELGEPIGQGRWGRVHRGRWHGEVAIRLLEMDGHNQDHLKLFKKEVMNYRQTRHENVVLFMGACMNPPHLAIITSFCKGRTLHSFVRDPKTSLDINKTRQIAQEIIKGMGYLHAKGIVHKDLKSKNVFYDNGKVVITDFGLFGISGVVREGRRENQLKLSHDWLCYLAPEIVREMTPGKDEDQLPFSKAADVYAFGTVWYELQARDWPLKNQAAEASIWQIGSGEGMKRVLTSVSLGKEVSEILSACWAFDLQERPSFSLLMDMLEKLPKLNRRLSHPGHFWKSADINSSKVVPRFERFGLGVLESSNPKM
In words: Selectivity interaction (ActivX KiNativ screen (kinase selectivity in THP-1 cell lysates)) EUB0000639a KSR1. In kind it is subcellular. The conditions noted are these: lysate.

In experiment [3] the target is T2, Serine/threonine-protein kinase TNNI3K (Homo sapiens) (UniProt Q59H18).
T2 sequence (whole entry): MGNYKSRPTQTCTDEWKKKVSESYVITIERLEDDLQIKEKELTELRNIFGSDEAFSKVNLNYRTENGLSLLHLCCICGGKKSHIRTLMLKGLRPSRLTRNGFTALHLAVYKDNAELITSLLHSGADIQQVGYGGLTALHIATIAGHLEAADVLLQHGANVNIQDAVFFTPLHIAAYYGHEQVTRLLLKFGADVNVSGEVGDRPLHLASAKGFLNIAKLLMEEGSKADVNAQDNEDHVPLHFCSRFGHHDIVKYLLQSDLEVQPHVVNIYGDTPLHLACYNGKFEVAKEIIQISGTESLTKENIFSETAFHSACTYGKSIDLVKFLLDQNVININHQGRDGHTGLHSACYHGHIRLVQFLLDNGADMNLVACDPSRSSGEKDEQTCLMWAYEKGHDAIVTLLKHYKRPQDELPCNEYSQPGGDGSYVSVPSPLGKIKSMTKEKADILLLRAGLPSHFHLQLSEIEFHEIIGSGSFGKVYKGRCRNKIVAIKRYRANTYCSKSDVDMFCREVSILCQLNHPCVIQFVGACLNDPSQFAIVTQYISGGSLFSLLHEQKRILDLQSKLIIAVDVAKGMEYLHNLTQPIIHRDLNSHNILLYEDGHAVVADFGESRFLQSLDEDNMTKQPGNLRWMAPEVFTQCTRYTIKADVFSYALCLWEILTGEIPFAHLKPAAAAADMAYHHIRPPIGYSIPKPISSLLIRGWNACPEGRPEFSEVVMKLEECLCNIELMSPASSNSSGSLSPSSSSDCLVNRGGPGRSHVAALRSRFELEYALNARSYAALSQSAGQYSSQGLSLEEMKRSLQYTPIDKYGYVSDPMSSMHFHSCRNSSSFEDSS
In words: Selectivity interaction (KinomeScan (DiscoverX)) EUB0000229b TNNI3K. The conditions noted are these: at 10 µM.

The target in experiment [4] is T3, Serine/threonine-protein kinase LATS1 (Homo sapiens) (UniProt O95835).
T3 sequence (whole entry): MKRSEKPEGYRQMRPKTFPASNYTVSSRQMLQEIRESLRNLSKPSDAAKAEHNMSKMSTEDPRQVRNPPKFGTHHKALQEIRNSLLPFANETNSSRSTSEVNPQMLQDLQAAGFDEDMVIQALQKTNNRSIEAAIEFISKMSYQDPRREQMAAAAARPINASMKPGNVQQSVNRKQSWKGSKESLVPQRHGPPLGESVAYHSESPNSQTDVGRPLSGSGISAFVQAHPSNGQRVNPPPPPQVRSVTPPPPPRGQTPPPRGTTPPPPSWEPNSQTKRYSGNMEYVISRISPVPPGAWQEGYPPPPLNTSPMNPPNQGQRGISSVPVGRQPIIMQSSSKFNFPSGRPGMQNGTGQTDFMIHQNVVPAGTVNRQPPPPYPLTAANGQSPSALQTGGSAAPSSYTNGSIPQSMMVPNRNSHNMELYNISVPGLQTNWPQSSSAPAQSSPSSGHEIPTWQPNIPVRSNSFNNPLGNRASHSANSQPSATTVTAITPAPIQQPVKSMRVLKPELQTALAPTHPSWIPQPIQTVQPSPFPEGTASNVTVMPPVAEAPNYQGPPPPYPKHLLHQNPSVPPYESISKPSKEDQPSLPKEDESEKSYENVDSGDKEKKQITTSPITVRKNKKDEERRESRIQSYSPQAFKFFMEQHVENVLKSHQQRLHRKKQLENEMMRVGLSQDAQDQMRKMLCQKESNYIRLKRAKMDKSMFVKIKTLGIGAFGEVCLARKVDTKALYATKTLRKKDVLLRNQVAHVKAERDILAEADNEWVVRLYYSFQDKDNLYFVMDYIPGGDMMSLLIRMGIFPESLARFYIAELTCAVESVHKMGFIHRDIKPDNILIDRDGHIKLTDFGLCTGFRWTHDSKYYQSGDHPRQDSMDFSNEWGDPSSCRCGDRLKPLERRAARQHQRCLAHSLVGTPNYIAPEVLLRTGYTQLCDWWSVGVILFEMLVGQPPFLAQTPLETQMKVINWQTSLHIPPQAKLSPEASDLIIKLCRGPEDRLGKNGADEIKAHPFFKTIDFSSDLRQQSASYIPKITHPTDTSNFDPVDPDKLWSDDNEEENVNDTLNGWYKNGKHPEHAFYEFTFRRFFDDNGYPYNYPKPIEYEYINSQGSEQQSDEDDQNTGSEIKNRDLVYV
In words: Selectivity interaction (KinomeScan (DiscoverX)) EUB0000618a LATS1. The settings on record: at 10 µM.

Calcium/calmodulin-dependent protein kinase type II subunit beta (Homo sapiens), sequence (Q13554 whole entry): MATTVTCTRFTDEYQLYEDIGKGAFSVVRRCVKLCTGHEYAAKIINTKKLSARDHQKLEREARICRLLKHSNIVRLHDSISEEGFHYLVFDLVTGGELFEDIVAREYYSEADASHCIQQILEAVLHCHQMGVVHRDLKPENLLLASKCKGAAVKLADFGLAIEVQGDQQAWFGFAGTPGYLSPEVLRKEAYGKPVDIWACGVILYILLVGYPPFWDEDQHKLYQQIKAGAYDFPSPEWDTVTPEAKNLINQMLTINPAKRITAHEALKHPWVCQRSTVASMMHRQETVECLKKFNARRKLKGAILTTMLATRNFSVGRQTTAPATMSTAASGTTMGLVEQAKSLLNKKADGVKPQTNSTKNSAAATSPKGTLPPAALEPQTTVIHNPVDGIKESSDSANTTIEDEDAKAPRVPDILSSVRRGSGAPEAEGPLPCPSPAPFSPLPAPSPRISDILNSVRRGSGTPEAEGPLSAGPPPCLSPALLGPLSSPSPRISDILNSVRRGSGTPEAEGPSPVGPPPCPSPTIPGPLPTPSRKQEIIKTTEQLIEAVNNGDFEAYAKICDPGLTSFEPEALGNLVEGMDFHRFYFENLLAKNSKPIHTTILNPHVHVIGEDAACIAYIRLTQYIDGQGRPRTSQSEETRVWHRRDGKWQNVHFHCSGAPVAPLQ

Consider `CC(C)(O)[C@H](F)CN1Cc2cc(NC(=O)c3cnn4cccnc34)c(N3CCOCC3)cc2C1=O`, for which the dTM in experiment [1] was determined as 0.1 K.

As to `CC[C@@H]1[C@H](F)C(=O)N[C@@H]1COc1nccc2cc(C(N)=O)c(OC)cc12` [ZIMLOVISERTIB], the % of inhibition in experiment [2] (at 0.01 µM) was 2.4%; in experiment [2] (at 0.04 µM), -6.6%; in experiment [2] (at 0.2 µM), -8.6%; in experiment [2] (at 1 µM), -32.8%; in experiment [2] (at 5 µM) it was -57.9%.

On to `COc1cc(N(C)c2ccnc3ccc(C(F)(F)F)cc23)cc(OC)c1OC`, for which the % binding in experiment [3] was found to be 90%.

`O[C@H]1CC[C@H](Nc2ncc3nc(Nc4c(F)cc(F)cc4F)n([C@H]4CCOC4)c3n2)CC1` had a % of control in experiment [4] of 100%.
